Converted amounts (≈) assume the structure as drawn. Like-named read-outs stand apart in the source and are kept apart here. Where a SMILES comes first, the peptide text is derived from it. [ ]: non-standard residue; d: D form.
Experiments:
[1] = system: B. cinerea; assay type: cell-based; conditions: for ECS0 (μg/ml) B. cinerea: concentration that reduces fungal strain growth by 50%; for EC95 (μg/ml) B. cinerea: concentration that reduces pathogen growth by 95%
Protocol: (§1) Three different fungal strains were tested for their antifungal activity: B. cinerea, Aspergillus sp. and Z. tritici. In addition to the two conventional isoforms, three new isoforms are being tested for their antifungal properties. A range of concentrations (μg a.i./ml or ppm) 0; 0.0037; 0.0146; 0.0586; 0.2344; 0.9375; 3.75 and 15 is used to determine the activity coefficient. Based on this concentration range, the EC50 (concentration that reduces fungal strain growth by 50%) and EC95 (concentration that reduces pathogen growth by 95%) were calculated and presented as disclosed in Table 5.
4.1 Antifungal Activity on B. cinerea

[2] = system: Z. tritici; assay type: cell-based; conditions: for ECS0 (μg/ml) Z. tritici: concentration that reduces fungal strain growth by 50%; for EC95 (μg/ml) Z. tritici: concentration that reduces pathogen growth by 95%
Protocol: as §1
4.3 Antifungal Activity on Z. Tritici

[3] = system: Vero cells; assay type: cell-based
Protocol: The cytotoxicity test is performed using Vero cells and the CyQUANT™ XTT Cell Viability assay kit (supplied by Invitrogen™).
Samples are dissolved in 100% DMSO at a concentration of 20-50 g/L. The final concentration in DMEM medium is 40 μg/L. Cells were prepared in flasks containing DMEM cell culture medium with 10% FBS as follows:
A 175 ml flask containing 20-30 million cells with 25 ml medium and 2 ml trypsin was added. Then the medium was discarded as the cells were attached to the flask wall. Rinse twice with PBS, then trypsin was added to detach cells from the flask wall. The mixture was incubated for 5 min at 37° C. To inactivate trypsin, 6 ml […] was added to the medium (twice the volume of the original trypsin in the medium).
In a 50 ml flask, the medium was centrifuged for 5 min at 300 g. […]. The medium was discarded, and the cells were resuspended. 100 μL of cells were added to 100 μL of dye, then 12 μL was used for counting. The percentage of viability was compared with a control of cells without any treatment.
The test is performed in a 96-well plate. A range of concentrations (mg/l) 0.14; 0.28; 0.56; 1.16; 2.25; 4.5 is used to determine the toxicity limit of each isoform.

[4] = system: Aspergillus sp.; assay type: cell-based
Protocol: as §1
4.2 Antifungal Activity on Aspergillus sp.

[5] = system: B. cinerea; conditions: Béchet et al., 2013; cited from earlier work
[6] = system: A. niger; conditions: Guez et al., 2022; cited from earlier work
[7] = system: rats; conditions: 28-day treatment and 14 days recovery period; cited from earlier work

conventional C17 isoform of mycosubtilin, ring Asn-Tyr-Asn-Gln-Pro-Ser-Asn (peaks 5, 6, 7; FIG. 1) (cyclo(N[dY][dN]QP[dS]N); not fully specified (N-terminus)) [A-C17]
ECS0 (μg/ml) B. cinerea [1]: 0.467 µg/mL
EC95 (μg/ml) B. cinerea [1]: 0.677 µg/mL
ECS0 (μg/ml) Z. tritici [2]: 0.943 µg/mL
EC95 (μg/ml) Z. tritici [2]: 18.010 µg/mL
EC50 (cell viability) ([3]; Vero cells, XTT, range 0.14-4.5 mg/l, determined from FIG. 7): around 1.7 mg/L
EC50 value ([4]; Aspergillus sp.): 1.191 ppm
EC95 value ([4]; Aspergillus sp.): 1.905 ppm
higher concentration of the former required to have the same activity as the latter ([4]; EC50, A-C17 versus Gln1-C17): 14%
higher concentration of the former required to have the same activity as the latter ([4]; EC95, A-C17 versus Gln1-C17): 32%

CCCCCCCCCCCCCC1CC(=O)N[C@@H](CCC(N)=O)C(=O)N[C@H](Cc2ccc(O)cc2)C(=O)N[C@H](CC(N)=O)C(=O)N[C@@H](CCC(N)=O)C(=O)N2CCC[C@H]2C(=O)N[C@H](CO)C(=O)N[C@@H](CC(N)=O)C(=O)N1 (some centres unmarked) [Gln1-C16]
EC50 value [1]: 1.048 ppm
EC50 value [2]: 1.906 ppm
EC50 (cell viability) [3]: 4.5 µg/mL (≈ 4.15 µM)
toxicity compared with the conventional isoform, in words [3]: significantly less toxic than the conventional A-C16 isoform

CCCCCCCCCCCCCC1CC(=O)N[C@@H](CC(N)=O)C(=O)N[C@H](Cc2ccc(O)cc2)C(=O)N[C@H](CCC(N)=O)C(=O)N[C@@H](CCC(N)=O)C(=O)N2CCC[C@H]2C(=O)N[C@H](CO)C(=O)N[C@@H](CC(N)=O)C(=O)N1 (some centres unmarked) [Gln3-C16]
EC50 (cell viability) [3]: over 4.5 mg/L
toxicity compared with the conventional isoform, in words [3]: significantly less toxic than the conventional A-C16 isoform

CCCCCCCCCCCCCC[C@@H]1CC(=O)N[C@@H](CC(N)=O)C(=O)N[C@H](Cc2ccc(O)cc2)C(=O)N[C@H](CCC(N)=O)C(=O)N[C@@H](CCC(N)=O)C(=O)N2CCC[C@H]2C(=O)N[C@H](CO)C(=O)N[C@@H](CC(N)=O)C(=O)N1 [Gln3-C17] (HELM PEPTIDE1{N.[dY].[dQ].Q.P.[dS].N.[CCCCCCCCCCCCCC[C@H](CC(=O)[*:2])N[*:1]]}$PEPTIDE1,PEPTIDE1,1:R1-8:R2$$$V2.0)
ECS0 (μg/ml) B. cinerea [1]: 1.646 µg/mL
EC95 (μg/ml) B. cinerea [1]: 3.437 µg/mL (≈ 3.13 µM)
ECS0 (μg/ml) Z. tritici [2]: 4.314 µg/mL
EC95 (μg/ml) Z. tritici [2]: 16.078 µg/mL (≈ 14.6 µM)
EC50 (cell viability) [3]: over 4.5 mg/L
ECS0 (μg/ml) Aspergillus sp. ([4]; concentration that reduces fungal strain growth by 50%): 6.335 µg/mL
EC95 (μg/ml) Aspergillus sp. ([4]; concentration that reduces pathogen growth by 95%): 13.659 µg/mL (≈ 12.4 µM)

CCCCCCCCCCCCCC[C@@H]1CC(=O)N[C@@H](CCC(N)=O)C(=O)N[C@H](Cc2ccc(O)cc2)C(=O)N[C@H](CC(N)=O)C(=O)N[C@@H](CCC(N)=O)C(=O)N2CCC[C@H]2C(=O)N[C@H](CO)C(=O)N[C@@H](CC(N)=O)C(=O)N1 [Gln1-C17]
antifungal efficacy in words ([1]; B. cinerea): effective against this fungal strain, but at higher concentrations
ECS0 (μg/ml) B. cinerea [1]: 0.920 µg/mL
EC95 (μg/ml) B. cinerea [1]: 1.117 µg/mL (≈ 1.02 µM)
antifungal efficacy in words ([2]; Z. tritici): effective against this fungal strain, but at a higher concentration
ECS0 (μg/ml) Z. tritici [2]: 2.156 µg/mL
EC95 (μg/ml) Z. tritici [2]: 17.040 µg/mL (≈ 15.5 µM)
EC50 (cell viability) [3]: around 3.4 mg/L
EC50 value [4]: 1.019 ppm
EC95 value ([4]; Aspergillus sp.): 1.290 ppm
antifungal efficacy in words ([4]; Aspergillus sp.): effective against this fungal strain

n-C16
MIC [5]: 16 µM
MIC [6]: 16 µM

Iturin A
toxic effects on organs, in words [7]: no toxic effects on the lungs, heart and kidneys

From patent publication US20250313596A1, “BACILLUS SUBTILIS STRAINS PRODUCING NEW MYCOSUBTILIN ISOFORMS” (Universite de Lille, priority 2022, published 2025)
